The text below walks through data of article PMC5597593, “Polyphenols journey through blood-brain barrier towards neuronal protection” (Scientific Reports, 2017).

On the set-up of series [1]: method as in PMID 25571923. The conditions noted are these: human plasma samples; cited from earlier work.
The test system of series [2] is HBMEC line. Kind of series: Endothelial transport across confluent HBMEC two chamber BBB model, LC-Orbitrap MS. Type of series: in vitro ADME, human. The conditions noted are these: for Endothelial transport (lower/(upper+lower) compartment): 5 μM in upper chamber, 2 h of incubation. The protocol:
We used the well-validated confluent HBMEC two chamber BBB model[32] to investigate endothelium transport with metabolite quantification by Orbitrap LC-MS techniques. (Poly)phenol metabolites were added in the upper chamber and their putative transport through the BBB endothelium assessed after 2 h of incubation (Fig. 1a).
Human brain microvascular endothelial cell (HBMEC) line was used as a simplified and validated in vitro model of the BBB[32], [44], [45], [62]. This cell line was derived from primary cultures of HBMEC transfected with SV40 large T antigen. HBMEC line was cultured in RPMI 1640 medium (Sigma-Aldrich) supplemented with 10% fetal bovine serum (FBS - Biochrom AG), 10% NuSerum IV (BD Biosciences), 1% non-essential amino acids (NEAA - Biochrom AG), 1% minimal essential medium (MEM) vitamins (Biochrom AG), 1 mM sodium pyruvate (Biochrom AG), 2mM L-glutamine (Biochrom AG), and 1% antibiotic-antimycotic solution (Sigma-Aldrich). For immunostaining and cytoprotection studies, cells were seeded at a density of 8 × 10^4 cell/mL in 24-well and 96-well plates, respectively, and treated after 48 h in culture. For integrity and transport studies, cells were seeded on polyester transwell inserts (0.4 μm, Corning Costar Corp., USA) at a density of 8 × 10^4 cell/insert and treated after 8 days in culture. Inserts and plates were coated with rat-tail collagen-I (BD Biosciences, Erembodegem, Belgium) before seeding. All experiments were performed after monolayer formation.
HBMEC were plated in semi-permeable membranes (inserts) placed in cell culture wells. This two-chamber system, where the upper and lower chambers mimic the blood and brain compartments, respectively, and the confluent HBMEC monolayer represents the BBB. Transport assays were conducted in HBSS (Hank’s Balanced Salt Solution) with calcium and magnesium (Gibco), supplemented with 0.1% FBS. Confluent monolayers of HBMEC were incubated with 5 μM of each compound for 2 h, time described for compounds to interact and/or being transported across cells, [69]. […]. Monolayer integrity was ensured in all experiments as described. In the end, cell medium from upper and lower compartments were collected and frozen at −80 °C until analysis. Transport analysis were performed after sample deproteinization by LC-Orbitrap MS as described below.
To 1 mL of upper or lower compartment cell medium it was added: 139 µL of 50% formic acid, ascorbic acid (final concentration of 1 mM) and taxifolin as internal standard (final concentration of 9 µM). To precipitate proteins, 2.5 mL of ACN was added dropwise and samples were vortexed before centrifugation at 3200 g for 15 min. The supernatant was removed and dried under centrifugal evaporation (CentriVap Vaccum Concentrator, Labconco). Samples were dissolved in 5% ACN in 0.1% formic acid and immediately analyzed by LC-Orbitrap MS.
Samples were separated on an HPLC Accela 600 HPLC system (Thermo Scientific, Bremen, Germany) using a C18 Synergi Hydro RP18 column (Phenomenex, Macclesfield, UK) 4 μm particle size and dimensions 2 mm ID × 150 mm. […] Analysis was done on an LTQ OrbitrapTM XL hybrid mass spectrometer (Thermo Scientific, Bremen, Germany).
MS analysis was performed using data-dependent Nth order double play analysis comprising full scan mass range 80–2000 amu, 30 000 resolution, data-type centroid and data dependent MS/MS (60 s of exclusion duration) on the top three most intense ions detected above threshold automatically in the independent scan event. ESI settings were as follows: source voltage, 3.4 kV; capillary temperature was 275 °C with a sheath gas at 40 psi and auxiliary gas at 5 psi. MS data handling software (Xcalibur QualBrowser software, Thermo Electron Corp.) was used to search for predicted metabolites by their appropriate m/z value. All peaks were checked for m/z value and fragmentation products. […]

For series [3], the system named is 3D aggregates containing neurons and astrocytes (NT2). In words: Neuroprotection in 3D co-cultures of neurons and astrocytes (t-BHP injury). In kind it is cell-based, human. The conditions noted are these: pre-incubation 5 µM 24 h, then 300 µM t-BHP, 48 h. The protocol:
NTera-2/cl.D1 (NT2) cells, obtained from American Type Cell Culture Collection (ATCC), were differentiated in stirred suspension culture systems, as 3D aggregates, as previously described. A single cell suspension of undifferentiated NT2 cells was seeded in DMEM (Dulbeco Minimum Essential Media), 10% FBS, 1% P/S (all from Invitrogen), in a 125 mL spinner vessel equipped with ball impeller (Wheaton). After three days of aggregation, differentiation was induced by addition of 10 µM retinoic acid (Sigma-Aldrich), for three weeks, with a 50% medium exchange performed every 2–3 days. Following this period (from day 24 onwards), the medium was composed by DMEM, 5% FBS, 1% P/S. Stable 3D co-cultures of neurons and astrocytes were maintained up to day 50 of culture and applied in neuroprotection assays (from day 38 to day 50).
Cell viability was accessed before exposure to test compounds, before t-BHP lesion induction and 48 h after lesion induction by PrestoBlue® Cell Viability Reagent (Thermo Fisher Scientific), accordingly to manufacturer’s instructions. Idebenone (provided by Grupo Tecnimede) was used as positive control. Final cell viability was calculated as a percentage of cell viability before lesion induction.

The target in series [4] is T1, P-gp (Homo sapiens, UniProt P08183).
T1 construct: endogenous in cells; host or cells: HBMEC line (human brain microvascular endothelial cells immortalised with SV40 large T antigen)
Kind of series: P-gp functional assay, Rhodamine 123 accumulation in HBMEC. In kind it is cell-based. To be noted: 5 μM.
Experimental: Activity of each efflux transporter was determined by measuring cellular accumulation of respective substrate[65], [66], and results were expressed as fold-change compared to the respective control. […] The solution was quickly removed, HBMEC were washed three times with PBS and solubilized in 0.1 M NaOH. Substrate content was determined using a FLUOstar Omega fluorescent plate reader (BMG Labtechnologies, Ortenberg, Germany; for P-gp, excitation at 505 nm, emission at 534 nm; for MRP1, excitation at 495 nm, emission at 516 nm; for BCRP excitation at 503 nm, emission at 512 nm). […] Protein content was evaluated by the Bradford method[67] using Bio-Rad’s Protein Assay reagent (Bio-Rad).

Series [5] has as its system primary mouse cerebellar granule cells. Kind of series: Neuroprotection in cerebellar granule cells exposed to glutamate excitotoxicity. Type of series: cell-based. The conditions noted are these: pre-incubation 5 µM 24 h, then 100 µM glutamate 24 h. The protocol: Primary cultures of cerebellar granule cells were prepared according to the already described method. Cells were isolated from cerebella of 7d-old BALB-C mice and 0.5 × 10^6 cell/mL were cultured in Neurobasal Medium (Gibco) supplemented with 2% B-27 without antioxidants (Gibco) and 2% KCl (20 mM, Sigma-Aldrich), containing 0.25% L-glutamine (200 mM, Sigma-Aldrich) and 0.48% penicillin-streptomycin (P/S, 5000 U mL^−1, Gibco). Experiments were performed on 24-well plates with coverslips coated with 50 µg/mL poly-D-lysine (Sigma-Aldrich). 20 µM of cytosine arabinoside (Sigma-Aldrich) was added 48 h after inoculation to prevent glia cell proliferation. All the experiments were performed between days 7–11 in culture.
Physiological concentrations (5 µM) of the two most abundant metabolites were added to the cells at 7 d in culture. Cells were then incubated for 24 h and morphology was evaluated. At day 8 in culture, 100 µM of glutamate (Sigma-Aldrich) was added to the respective wells. Cells were incubated for another 24 h, morphology was evaluated and viability determined by fluorescence microscopy through Propidium Iodide (PI) and Hoechst 33342 staining, as previously described.

Series [6] deals with HBMEC line. In words: Cytoprotection in HBMEC submitted to oxidative stress (H2O2). To be noted: pre-incubation 5 µM 24 h, then 300 µM H2O2 24 h. Type of series: cell-based, human. The protocol: HBMEC were incubated in the presence of H2O2 (Sigma-Aldrich). Briefly, 24 h after seeding, cells growth medium was removed and cells were pre-incubated for 24 h with 5 µM of each compound. After pre-incubation, media was replaced by new media containing 300 µM H2O2, for 24 h[71], [72]. In the end, medium was removed and cell viability was assessed using the CellTiter-Blue® Cell Viability Assay (Promega), according to the manufacturer’s instructions.

Series [7] concerns NF-κB p65. Kind of series: NF-κB p65 phosphorylation (ser536) ratio in N9 microglia (western blot). Type of series: cell-based, murine. To be noted: N9 cells; pre-treatment before LPS; 15 to 60 min. The protocol:
N9 microglial cells were plated into 6-well plates (5 × 10^5 cells mL^−1) and then pre-incubated with 5 µM of each (poly)phenol metabolite. After 6 h, medium was discarded and cells were washed once with phosphate buffer saline (PBS) prior to addition of fresh medium with 300 ng/mL lipopolysaccharide from Escherichia coli 055:B5 (LPS, Sigma–Aldrich). Pro-inflammatory mediators release to medium were quantified as described below.
NT2 aggregates and N9 protein samples western blot analysis was performed accordingly to[41]. Aggregates were lysed with TX-100 lysis buffer (50 mM Tris, 5 mM EDTA, 150 mM NaCl, 1% Triton X-100, pH 7.4) and N9 protein extraction was performed with RIPA buffer. Primary antibodies were incubated overnight at RT, followed by secondary antibodies (horseradish peroxidase-conjugated, ECL anti-mouse IgG, anti-rat IgG or anti-rabbit IgG; Pierce, Millipore and GE Healthcare), incubated for 2 h at room temperature. Anti-GAPDH antibody (Thermo Scientific) was used as loading control. Primary antibodies used for protein detection were: anti-βIII-Tubulin (Millipore), anti-GFAP (DAKO), and MitoProfile Total OXPHOS WB primary antibody cocktail (Abcam), anti-phospho-NF-κB p65 (ser536) antibody (Cell Signalling), anti-NF-κB p65 (C-20) (Santa Cruz Biotechnology), and anti-IκB-α (C-21) antibody (Santa Cruz Biotechnology). […]

Series [8] concerns HBMEC. Kind of series: HBMEC metabolization: search for novel cellular metabolites by LC-Orbitrap MS. In kind it is in vitro ADME, human. To be noted: after addition of Pyr-sulf in upper compartment; compared with acetylcysteine-pyrogallol.
Experimental: Search for novel compounds resulting from HBMEC metabolization was performed in the same samples using Xcalibur QualBrowser software using an in-house database of putative bioavailable (poly)phenol metabolites[30]. Putative ID of predicted metabolites was determined by exact mass, according to their appropriate m/z value.
Series [9] deals with β-III tubulin. In words: Western blot of neuronal marker in 3D aggregates. In kind it is cell-based, human. To be noted: pre-incubation with 5µM Pyr-sulf or 200nM Idebenone, normalized to GAPDH. The protocol: NT2 aggregates and N9 protein samples western blot analysis was performed accordingly to[41]. Aggregates were lysed with TX-100 lysis buffer (50 mM Tris, 5 mM EDTA, 150 mM NaCl, 1% Triton X-100, pH 7.4) and N9 protein extraction was performed with RIPA buffer. Primary antibodies were incubated overnight at RT, followed by secondary antibodies (horseradish peroxidase-conjugated, ECL anti-mouse IgG, anti-rat IgG or anti-rabbit IgG; Pierce, Millipore and GE Healthcare), incubated for 2 h at room temperature. Anti-GAPDH antibody (Thermo Scientific) was used as loading control. Primary antibodies used for protein detection were: anti-βIII-Tubulin (Millipore), anti-GFAP (DAKO), and MitoProfile Total OXPHOS WB primary antibody cocktail (Abcam), anti-phospho-NF-κB p65 (ser536) antibody (Cell Signalling), anti-NF-κB p65 (C-20) (Santa Cruz Biotechnology), and anti-IκB-α (C-21) antibody (Santa Cruz Biotechnology). Membranes were developed using Amersham ECL Prime Western Blotting Detection Reagent (GE Healthcare) and visualized using a ChemiDocTM XRS + System (BioRad).

“Also recorded” adds a separate entry of the source.

T1 sequence (P08183 whole entry): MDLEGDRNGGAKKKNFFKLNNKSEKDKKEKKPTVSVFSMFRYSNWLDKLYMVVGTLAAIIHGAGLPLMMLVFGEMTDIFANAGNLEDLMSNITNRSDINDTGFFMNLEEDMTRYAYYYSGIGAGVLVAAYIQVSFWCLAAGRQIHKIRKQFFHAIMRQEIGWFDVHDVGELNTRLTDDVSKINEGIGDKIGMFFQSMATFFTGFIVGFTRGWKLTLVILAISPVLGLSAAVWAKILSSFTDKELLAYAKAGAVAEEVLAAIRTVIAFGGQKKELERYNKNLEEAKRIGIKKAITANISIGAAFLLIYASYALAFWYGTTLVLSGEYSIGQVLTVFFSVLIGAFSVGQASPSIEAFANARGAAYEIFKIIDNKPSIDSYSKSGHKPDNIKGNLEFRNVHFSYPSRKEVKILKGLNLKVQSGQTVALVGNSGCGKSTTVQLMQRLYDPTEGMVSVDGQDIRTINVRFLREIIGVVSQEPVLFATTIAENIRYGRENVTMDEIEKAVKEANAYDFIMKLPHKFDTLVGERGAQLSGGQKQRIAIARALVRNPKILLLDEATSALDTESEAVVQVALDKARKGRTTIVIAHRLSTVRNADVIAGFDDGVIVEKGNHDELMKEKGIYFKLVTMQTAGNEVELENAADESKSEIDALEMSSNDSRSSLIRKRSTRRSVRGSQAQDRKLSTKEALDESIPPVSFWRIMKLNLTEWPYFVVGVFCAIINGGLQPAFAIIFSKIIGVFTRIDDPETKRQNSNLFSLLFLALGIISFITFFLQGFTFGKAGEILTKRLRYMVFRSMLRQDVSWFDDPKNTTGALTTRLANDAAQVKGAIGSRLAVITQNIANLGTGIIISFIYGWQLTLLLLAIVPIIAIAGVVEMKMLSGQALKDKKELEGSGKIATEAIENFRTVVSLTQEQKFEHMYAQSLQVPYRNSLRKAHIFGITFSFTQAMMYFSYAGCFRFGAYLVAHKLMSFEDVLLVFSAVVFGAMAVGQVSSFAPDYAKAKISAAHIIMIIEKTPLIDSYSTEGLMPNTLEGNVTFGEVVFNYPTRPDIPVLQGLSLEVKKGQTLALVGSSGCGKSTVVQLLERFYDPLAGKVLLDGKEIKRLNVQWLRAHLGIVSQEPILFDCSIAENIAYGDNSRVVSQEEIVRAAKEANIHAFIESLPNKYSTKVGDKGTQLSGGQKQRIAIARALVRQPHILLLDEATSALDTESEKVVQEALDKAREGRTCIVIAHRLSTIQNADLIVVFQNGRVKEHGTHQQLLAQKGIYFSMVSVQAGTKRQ

As to “1-O-methylpyrogallol-O-sulfate [1-MePyr-sulf]”, the Cmax in series [1] was 2880 ± 1800 nM. Moreover, in [2], the “Endothelial transport (lower/(upper+lower) compartment)” value was “less effectively transported”.

For `COc1c(O)cccc1OS(=O)(=O)O` [2-MePyr-sulf, 2-O-methylpyrogallol-1-O-sulfate], the highest concentration (Cmax) in [1] is 1970 ± 1000 nM. In [2], the “Endothelial transport (lower/(upper+lower) compartment)” value is on record as “transported as effectively as Pyr-sulf”.

As to `Cc1ccc(OS(=O)(=O)O)c(O)c1` [4-MeCat-sulf, 4-Methylcatechol O-sulfate], in series [1], the Cmax is 640 ± 500 nM. In [2], the “Endothelial transport (lower/(upper+lower) compartment)” value is “more effectively transported than catechol-O-sulfate (Cat-sulf); also recorded: higher endothelial transport percentage”.

Consider `COc1c(O)cc(C(=O)O)cc1O` [4-MeGA, 4-O-methylgallic acid], for which the Cmax in [1] was 300 ± 100 nM.

As for `COc1c(O)cc(C(=O)O)cc1OS(=O)(=O)O` [4-MeGA-sulf, 4-O-methylgallic acid-3-O-sulfate], the Cmax in [1] was 2030 ± 1100 nM. Also, the “Endothelial transport (lower/(upper+lower) compartment)” value in series [2] was “increased BBB permeation compared with 4-methylgallic acid (4-MeGA)”.

For `O=S(=O)(O)Oc1ccccc1O` [Cat-sulf, Catechol-O-sulfate], the Cmax in series [1] is 12200 ± 5900 nM. Further, in series [3], the “Cell viability of 3D aggregates after t-BHP-induced injury” value is listed as “significant neuroprotection”. The “P-gp activity (Rhodamine 123 accumulation) in the presence of metabolite” value in series [4] is reported as “no statistically- significant alterations”. Also, in series [2] (5 μM, 1 μM Ko 143, p < 0.05 relatively to No inhibitor), the “Endothelial transport after treatment with BCRP specific inhibitor Ko 143” value is reported as “significant increase”. Also, the “Endothelial transport along time” value in [2] (5 μM, 2, 6 and 24 h) is “significant increase in transport percentage”. The “Cell viability of cerebellar granule cells under glutamate-induced excitotoxicity” value in [5] was “improved cell viability”. Moreover, the “Cell viability of HBMEC after H2O2 injury” value in series [6] is listed as “improved cell viability”. For the same compound, the “Kinetics of NF-κB phosphorylated-p65/total p65 ratio” value in [7] is on record as “unchanged”.

As for `N[C@@H](CCC(=O)N[C@@H](CSc1ccc(O)c(O)c1O)C(=O)NCC(=O)O)C(=O)O` [Glutathionyl-pyrogallol], in [8], the “Relative abundance (peak areas) of novel metabolite” value is “detected in higher amounts”.

As to `O=S(=O)(O)Oc1cccc(O)c1O` [Pyr-1-sulf, Pyrogallol-1-O-sulfate], in [2] (Pyr-sulf mixture 5 μM, 24 h incubation), the “Endothelial transport after 24 h” value is “no transport”.

As to `O=S(=O)(O)Oc1c(O)cccc1O` [Pyr-2-sulf, Pyrogallol-2-O-sulfate], the “Endothelial transport (lower/(upper+lower) compartment)” value in series [2] was “detected only Pyr-2-sulf in the basolateral compartment”.

Consider `COc1cc(C(=O)O)ccc1OS(=O)(=O)O` [VA-sulf, Vanillic acid 4-O-sulfate], for which, in [1], the Cmax was 1340 ± 1300 nM.

For `COC1=C(OC)C(=O)C(CCCCCCCCCCO)=C(C)C1=O` [idebenone], in series [9], the “β-III tubulin protein levels after t-BHP lesion” value is “increased β-III tubulin protein levels”.
